Measurements: patent US7935832B2, “Pyrrole and isoindole carboxamide derivatives as P2X7 modulators” (Glaxo Group Limited, priority 2007, dated 2011)

Molecular target: T1, human recombinant P2X7 receptors (Homo sapiens, UniProt Q99572)
T1 construct: expressed in transfected cells; host or cells: HEK293
T1 sequence (Q99572 1-595): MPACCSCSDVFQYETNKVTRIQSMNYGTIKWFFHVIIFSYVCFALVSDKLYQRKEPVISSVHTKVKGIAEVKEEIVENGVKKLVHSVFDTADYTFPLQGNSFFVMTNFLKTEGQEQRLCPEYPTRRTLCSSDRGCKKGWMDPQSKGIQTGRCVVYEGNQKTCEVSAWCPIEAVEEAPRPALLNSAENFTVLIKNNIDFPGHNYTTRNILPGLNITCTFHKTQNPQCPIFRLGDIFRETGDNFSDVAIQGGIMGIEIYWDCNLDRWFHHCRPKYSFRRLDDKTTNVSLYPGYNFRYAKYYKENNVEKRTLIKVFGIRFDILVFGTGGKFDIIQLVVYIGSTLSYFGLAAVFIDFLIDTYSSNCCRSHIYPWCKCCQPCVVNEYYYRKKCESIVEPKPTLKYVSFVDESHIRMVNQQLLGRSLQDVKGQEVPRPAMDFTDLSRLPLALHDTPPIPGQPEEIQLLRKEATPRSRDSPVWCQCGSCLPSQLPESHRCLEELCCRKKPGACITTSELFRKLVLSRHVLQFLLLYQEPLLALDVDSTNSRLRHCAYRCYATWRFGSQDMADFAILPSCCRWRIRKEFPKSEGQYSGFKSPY
Assay: Ethidium Accumulation Assay
Format: cell-based
Settings: HEK293 cells expressing human recombinant P2X7; 1 mM ATP, 100 μM ethidium; 30 min preincubation at room temperature; read-out: Antagonist pIC50 for blocking ATP responses (cellular accumulation of ethidium) (converted)
Method: Studies were performed using NaCl assay buffer of the following composition (in mM): 140 mM NaCl, HEPES 10, N-methyl-D-glucamine 5, KCl 5.6, D-glucose 10, CaCl2 0.5 (pH 7.4). HEK293 cells, expressing human recombinant P2X7 receptors, were grown in poly-L-lysine pretreated 96 well plates for 18-24 h. (The cloning of the human P2X7 receptor is described in U.S. Pat. No. 6,133,434). The cells were washed twice with 350 μl of assay buffer before addition of 50 μl of antagonist. The cells were then incubated at room temperature (19-21° C.) for 30 min before addition of ATP and ethidium (100 μM final assay concentration). The ATP concentration was chosen to be close to the EC80 for the receptor type and was 1 mM for studies on the human P2X7 receptor. Incubations were continued for 8 or 16 min and were terminated by addition of 25 μl of 1.3M sucrose containing 5 mM of the P2X7 receptor antagonist reactive black 5 (Aldrich). Cellular accumulation of ethidium was determined by measuring fluorescence (excitation wavelength of 530 nm and emission wavelength of 620 nm) from below the plate with a Canberra Packard Fluorocount (Pangbourne, UK). Antagonist pIC50 values for blocking ATP responses were determined using iterative curve fitting techniques.

IC50 | Compound
≤ 631 nM | CCN1C(=O)c2ccccc2C1C(=O)NCc1ccc(Cl)cc1Cl (stereo not drawn) [Example 2, N-[(2,4-dichlorophenyl)methyl]-2-ethyl-3-oxo-2,3-dihydro-1H-isoindole-1-carboxamide]
≤ 126 nM | CN1C(=O)c2ccccc2C1C(=O)NCc1cccc(C(F)(F)F)c1Cl (stereo not drawn) [Example 7, N-{[2-chloro-3-(trifluoromethyl)phenyl]methyl}-2-methyl-3-oxo-2,3-dihydro-1H-isoindole-1-carboxamide]
≤ 631 nM | CN1C(=O)c2ccccc2C1C(=O)NCc1ccc(F)cc1Cl (stereo not drawn) [Example 6, N-[(2-chloro-4-fluorophenyl)methyl]-2-methyl-3-oxo-2,3-dihydro-1H-isoindole-1-carboxamide]
≤ 126 nM | CN1C(=O)c2ccccc2C1C(=O)NCc1ccc(Cl)cc1Cl (stereo not drawn) [Example 5, N-[(2,4-dichlorophenyl)methyl]-2-methyl-3-oxo-2,3-dihydro-1H-isoindole-1-carboxamide]
≤ 631 nM | CC1=CC(=O)N(C2CC2)C1C(=O)NCc1ccc(Cl)cc1Cl (stereo not drawn) [Example 1, 1-cyclopropyl-N-[(2,4-dichlorophenyl)methyl]-3-methyl-5-oxo-2,5-dihydro-1H-pyrrole-2-carboxamide]
≤ 126 nM | CCN1C(=O)c2ccccc2C1C(=O)NCc1cccc(C(F)(F)F)c1Cl (stereo not drawn) [Example 4, N-{[2-chloro-3-(trifluoromethyl)phenyl]methyl}-2-ethyl-3-oxo-2,3-dihydro-1H-isoindole-1-carboxamide]
